Reference: patent US4387086A, “Organic compounds” (Sandoz Ltd., priority 1979, dated 1983)

Each compound was assayed on antiserum of Example 4 (assay: Cross-reactivity of the antiserum: inhibition by 50% of the reaction between antibody (antiserum) and tracer antigen (tritiated thioridazine)). Details: relative to thioridazine; tracer tritiated thioridazine.
Assay type: binding, sheep
Description: The selectivity of the method can be determined as follows.
The main metabolites of thioridazine having a structure closely related to the parent compound are thioridazine-derivatives oxidized in the 2-methylthio side chain, more specifically the sulfoxide (A) and the sulfone (B), and also demethyl-thioridazine (C). The cross-reactivity of the antiserum was examined by employing a mixture of thioridazine, its sulfoxide A and sulfone B and its demethyl-thioridazine C in the amount required to inhibit the reaction between antibody (antiserum) and tracer antigen (tritiated thioridazine) by 50%.

Structure (SMILES) | inhibitory concentration where 50% binding to the antiserum of Example 4 occurs, times higher than that of the parent compound
CN1CCCCC1CCN1c2ccccc2Sc2ccc([S+](C)[O-])cc21 (stereo not drawn) [A] | 67 times
CN1CCCCC1CCN1c2ccccc2Sc2ccc(S(C)(=O)=O)cc21 (stereo not drawn) [B] | 93 times
CSc1ccc2c(c1)N(CCC1CCCCN1)c1ccccc1S2 (stereo not drawn) [C, demethyl-thioridazine] | 111 times
